The text below walks through data of patent publication US11420962B2, “Indene derivatives useful in treating pain and inflammation” (TARO PHARMACEUTICALS INC., priority 2018, dated 2022).

One series relates to Rat DRG. The experiment in a line: Rat dorsal root ganglion excitability response (EFS, Ca2+ transients). The format is cell-based. Conditions: Rattus norvegicus; Table 3; electrical field stimulation, Ca5 indicator; read-out: Scoring (EC50, Rat DRG excitability). Summed up:
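Adult rat DRG cells cultured for 2 days were loaded with the Ca5 dye 1 h before electrical field stimulation under four protocols. Compounds were tested at six concentrations (typically top 30 μM, 1:3 steps, duplicate), added either 24 h before or directly before EFS. The read-out was the per-well peak/baseline fluorescence ratio change, with imaging used to check for toxicity.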

Series [1] in a line: Metabolism by human liver microsomes. The format is in vitro ADME. The conditions noted are these: Table 8; 10 µM, in the presence of NADPH, 1 mg/mL protein. In short, it runs like this:
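Compound at 10 μM preincubated 10 min at 37 °C with human liver microsomes (1 mg/mL protein), 100 mM Tris HCl pH 7.5; started with 1 mM NADPH, run 60 min. Percent remaining at 60 min versus 0-time by LC-MS/MS analyte/internal-standard ratio, scored in bands.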

In another series the test system is T cells. The experiment in a line: T cell proliferation (anti-CD3/anti-CD28 dynabeads, CCK-8). The conditions noted are these: Table 4, mouse T cells, 72 hours after dynabeads, read-out: Scoring (IC50, cell proliferation). The format is cell-based, mice. On the procedure: Spleens were obtained from six male, CD-1 outbred mice, approximately 8 weeks old. Cells were harvested under sterile conditions by forcing each spleen though a cell filter (pore size 100 μm diameter). A homogenous cell suspension was obtained by washing the cells in fresh medium and passing cells through a smaller cell filter (pore size 70 μm).
Untouched T cells were isolated using the Pan T cell isolation kit (Miltenyi Biotech). Briefly, cells were counted and incubated with the required volume of antibody cocktail for 5 minutes at 4° C. before addition of microbeads and incubation for 10 minutes at 4° C. Labeled cells were retained in a magnetic column while unlabeled cells (T cells) passed through the column and were retained for use in the assay.
Cell viability was assessed by Trypan Blue exclusion and found to be >99% prior to transfer to plates. Isolated T cells were seeded out in 96 well plates at a density of 50,000 cells per well and allowed to incubate for 60 minutes in a humidified cell culture (37° C., 5% CO2) incubator prior to compound treatment. The media used for this assay (TexMACS, Miltenyi Biotech) was previously optimized for proliferation of T cells in serum free conditions.
Representative compounds of the invention (i.e., test compounds) were prepared as 30 mM stocks in 100% DMSO. Test compounds were initially diluted in media to yield 3 mM stocks before an additional 1:10 dilution in media was performed to yield working stocks of 300 μM (1% DMSO). Subsequent dilutions were performed in media (supplemented with 1% DMSO). When added to the assay plates (1:10 dilution), these yielded final concentrations in the assay plates of in 0.1% DMSO. The reference compound, Cyclosporin A, was prepared in an identical manner as above.
Unstimulated and Stimulated Control wells received an identical volume of TexMACS media/1% DMSO at this time, resulting in a final concentration of 0.1% DMSO across the plate. Mouse anti-CD3/anti-CD28 dynabeads were prepared (following the manufacturers' instructions) in TexMACS media and added to appropriate wells to achieve a final concentration of 1 bead per cell. Unstimulated Control wells then received an identical volume of TexMACS. Plates were centrifuged 72 hours after addition of dynabeads, (300×g for 3 minutes) to pellet the cells and 60% of the supernatant was removed to a fresh plate for analysis by ELISA. After removal of 60% of the supernatant for subsequent ELISA, cell proliferation was assessed using the CCK-8 assay.
Average response by the standard compound, cyclosporin A, was 1 uM.

The subject of series [2] is Mice (male, C57Bl/6). The experiment in a line: Formalin pain assay in mice. The format is in vivo. The conditions noted are these: Table 7; formalin 2.5%, left plantar. On the procedure: Mice (male, C57BL/6) were placed singly in a Perspex chamber for approximately 30 min on three successive days to acclimate and thereby reduce stress-induced behaviors. On the fourth day, the experimental animals received a 25 μl injection of 2.5% formalin beneath the left plantar skin using a 29-gauge syringe. […] The total time spent on flinches/licking/biting of the hind paw was recorded by visual observation for every 5 min period/interval for total observation duration of 60 min in two phases, the early phase (0-5 min) and the late phase (15-40 min). Observers were blinded to the treatment group allocation.
For test compounds, the % protection from 0-60 min was used to assess activity. Scoring for the test compounds was as follows: “A” represents a % protection of 81 to 100%, “B” represents a % protection of 61 to 80%, “C” represents a % protection of 31 to 60% and “D” represents a % protection of 0 to 30%.

Series [3] concerns Mice (male, C57Bl/6). The experiment in a line: Bleomycin lung fibrosis. The format is in vivo. An excerpt: Mice (male, C57BL/6) were randomized into treatment groups and fibrosis was induced by intratracheal administration of bleomycin. Treatment with representative compounds of the invention (i.e., test compounds) or reference standard (pirfenidone) was initiated on Day −1 and administered daily unto Day 7 or Day 21. For groups undergoing bronchoalveolar lavage (BAL), the trachea was cannulated and infused with ice cold Hank's Balanced Salt Solution (HBSS, pH 7.2). The collected lavage fluid was analyzed for cell numbers (total and differential counts) and levels of soluble TGFβ and collagen. For other groups, the lungs were either snap-frozen or formalin-fixed for further analyses.

The test system of series [4] is Rats (male, Sprague-Dawley). The experiment in a line: TNBS colitis assay in rats. The format is in vivo. The conditions noted are these: 10 mg/kg dose. On the procedure:
TNBS Colitis Assay of Representative Compounds in Rats Rats (male, Sprague-Dawley) were anaesthetized and a solution of TNBS (48 mg/kg) in ethanol, was instilled intra-rectally to induce colitis, 1 h after oral dosing of representative compounds of the invention (i.e., test compounds). Test compounds were dosed PO, QD for 7 days, using prednisolone as a reference standard. […] On Day 7, rats were euthanized and the colon was evaluated for length, weight, wall thickness, ulcer number and length and for the presence of adhesions and strictures. A colonic score was calculated based on the severity of the colonic parameters.

For series [5], the system named is Rats (male, Sprague-Dawley). The experiment in a line: Spinal nerve ligation (neuropathic pain). The format is in vivo. Conditions: 10 mg/kg. From the text:
Rats (male, Sprague-Dawley) were anaesthetized and placed in a prone position and the left paraspinal muscles were separated from the spinous processes at the L6-S2 levels. The L6 transverse process was carefully removed to visually identify the L4-L6 spinal nerves. The left L5 spinal nerves were isolated and tightly ligated with 6-0 silk thread. The skin was sutured to close the open tissue and animals were allowed to recover for 1 week before pain assessment. Basal readings for mechanical allodynia and thermal hyperalgesia were performed using a dynamic plantar aesthesiometer and plantar test surface, respectively, before surgery. On Day 7 following surgery, mechanical allodynia and thermal hyperalgesia were assessed and animals were randomized into treatment groups based on these baseline readings. […] Thermal hyperalgesia and mechanical allodynia were tested at 0, 60 and 120 minutes post administration of compounds on Days 7 and 14.

A further series deals with rats (male, Wistar). The experiment in a line: Rat monosodium iodoacetate-induced osteoarthritis. The format is in vivo. On the procedure:
Representative compounds of the invention (i.e., test compounds) were administered to rats (male, Wistar) PO, QD, at 3 or 30 mg/kg, starting on Day 0 through to Day 21 of the study. Osteoarthritis was modeled by intra-articular injection of 3 mg of monosodium iodoacetate (MIA) in the right knee. Knee swelling, paw withdrawal threshold (mechanical allodynia) and the difference in weight bearing were measured on Day 0 (pre-induction) and on Days 3, 7, 14 and 21 post-MIA injection. Tramadol was used as a reference standard.

`C=C1CC[C@H]2[C@H](CNCc3ccc4c(c3)OC(F)(F)O4)[C@@H]([C@@]3(C)Cc4cn[nH]c4C[C@@H]3CO)CC[C@]12C` [Ia-3, ((5R,6S)-5-((3aS,4R,5S,7aS)-4-((((2,2-difluorobenzo[d][1,3]dioxol-5-yl)methyl)amino)methyl)-7a-methyl-1-methyleneoctahydro-1H-inden-5-yl)-5-methyl-4,5,6,7-tetrahydro-1H-indazol-6-yl)methanol]: the 50% effective concentration (EC50) (as a rule, the concentration that produces a half-maximal response) in the series with Rat DRG lay within 2 to 6 µM. Further, in series [1], the “Scoring (% of drug remaining after 60 minutes, PDR60)” value was “D (a PDR^60 of 0 to 30%)”. The IC50 in the series on T cells is < 2 µM.

Consider `CC(C)CCC[C@@H](C)[C@H]1CC[C@H]2[C@H](CN)[C@@H]([C@@]3(C)Cc4cn[nH]c4C[C@@H]3CO)CC[C@]12C` [Ia-6, ((5R,6S)-5-((1R,3aS,4S,5S,7aR)-4-(aminomethyl)-7a-methyl-1-((R)-6-methylheptan-2-yl)octahydro-1H-inden-5-yl)-5-methyl-4,5,6,7-tetrahydro-1H-indazol-6-yl)methanol], for which the concentration for a half-maximal effect (EC50) in the series with Rat DRG lay within 6 to 15 µM. Also, the “Scoring (% of drug remaining after 60 minutes, PDR60)” value in series [1] is “A (a PDR^60 of 81 to 100%)”. Further, the “Scoring (% protection from 0-60 min)” value with Mice (male, C57Bl/6) [2] is reported as “C (a % protection of 31 to 60%)”. Moreover, the IC50 in the series on T cells is < 2 µM.

On to `CC(C)CCC[C@@H](C)[C@H]1CC[C@H]2[C@H](CNCc3ccc4c(c3)OC(F)(F)O4)[C@@H]([C@@]3(C)Cc4cn[nH]c4C[C@@H]3CO)CC[C@]12C` [Ia-7, ((5R,6S)-5-((1R,3aS,4S,5S,7aR)-4-((((2,2-difluorobenzo[d][1,3]dioxol-5-yl)methyl)amino)methyl)-7a-methyl-1-((R)-6-methylheptan-2-yl)octahydro-1H-inden-5-yl)-5-methyl-4,5,6,7-tetrahydro-1H-indazol-6-yl)methanol], for which the IC50 with T cells is < 2 µM.

On to `C=C1CC[C@H]2[C@H](CN)[C@@H]([C@@]3(C)Cc4c(C(F)F)n[nH]c4C[C@@H]3CO)CC[C@]12C` [Ia-30, ((5R,6S)-5-((3aS,4R,5S,7aS)-4-(aminomethyl)-7a-methyl-1-methyleneoctahydro-1H-inden-5-yl)-3-(difluoromethyl)-5-methyl-4,5,6,7-tetrahydro-1H-indazol-6-yl)methanol], for which the IC50 in the series on T cells was 6 to 15 µM.

Consider `C=C1CC[C@H]2[C@H](CN)[C@@H]([C@@]3(C)Cc4c(C(F)(F)F)n[nH]c4C[C@@H]3CO)CC[C@]12C` [Ia-31, ((5R,6S)-5-((3aS,4R,5S,7aS)-4-(aminomethyl)-7a-methyl-1-methyleneoctahydro-1H-inden-5-yl)-5-methyl-3-(trifluoromethyl)-4,5,6,7-tetrahydro-1H-indazol-6-yl)methanol], for which, in the series with T cells, the IC50 fell in the range of 2 to 6 µM.

As for `C=C1CC[C@H]2[C@H](CN)[C@@H]([C@@]3(C)Cc4c(C)n[nH]c4C[C@@H]3CO)CC[C@]12C` [Ia-32, ((5R,6S)-5-((3aS,4R,5S,7aS)-4-(aminomethyl)-7a-methyl-1-methyleneoctahydro-1H-inden-5-yl)-3,5-dimethyl-4,5,6,7-tetrahydro-1H-indazol-6-yl)methanol], in the series on Rat DRG, the half-maximal effective concentration (EC50) is > 15 µM. Besides, the “Scoring (% of drug remaining after 60 minutes, PDR60)” value in series [1] is “B (a PDR^60 of 61 to 80%)”. Besides, in the series with Mice (male, C57Bl/6) [2], the “Scoring (% protection from 0-60 min)” value is listed as “C (a % protection of 31 to 60%)”. For the same molecule, in the series with T cells, the IC50 was 6 to 15 µM.

Consider `Cc1ccc(=O)n(-c2ccccc2)c1` [pirfenidone, reference compound], for which the “reduction in BAL macrophages” value in the series on Mice (male, C57Bl/6) [3] (Day 7, 100 mg/kg dose) turned out to be 30%. This molecule also displayed a reduction in fibrosis with Mice (male, C57Bl/6) [3] (Day 14, 100 mg/kg dose) of 46%.

For `C[C@]12C=CC(=O)C=C1CC[C@@H]1[C@@H]2[C@@H](O)C[C@@]2(C)[C@H]1CC[C@]2(O)C(=O)CO` [prednisolone, reference compound], the “reduction of the colonic score” value in series [4] is 68%.

On to `COc1cccc(C2(O)CCCCC2CN(C)C)c1` (centres unmarked) [tramadol, reference compound], for which, in series [5], the “overall increase in paw withdrawal threshold as compared to the vehicle” value is given as 77%. Moreover, the “reduction difference in weight bearing as compared to the vehicle” value in the series on rats (male, Wistar) (10 mg/kg) is given as 79%. The “reduction in knee diameter as compared to the vehicle” value in the series with rats (male, Wistar) (Day 3, 30 mg/kg) is 11%.
